{"source": "patent US8110655B2", "about": "“Method to promote hair growth and/or delay or treat hair loss by administering a TGF-β antagonist or inhibitor” (Auxagen, Inc., priority 2006, dated 2012)", "key": {"[1]": {"test_system": "partial-thickness pig skin burn wounds", "test": "Partial-thickness porcine burn wound outcomes", "format": "in vivo", "method": "Animals were sedated with Talazine® ([…] Zolazepam, Fort Dodge Lab, Fort Dodge, Iowa) 5 mg/kg IM. The pigs were then intubated endotracheally and maintained under a surgical plane of anesthesia with isoflurane 0.5-2.5% in room air. The flank and back hair was clipped with hair clippers and the skin was scrubbed with a povidine iodine solution. Standardized partial thickness burns were created on the animals' backs and flanks by applying a 2.5 cm by 2.5 cm, 150 gram aluminum bar preheated in hot water to 80° C. The heated bar was wiped dry just prior to application to prevent water droplets from creating a steam burn on the skin. The bar was then placed at a vertical position perpendicular to the skin's surface and applied for a period of 20 seconds with all pressure supplied by gravity. […] In order to simulate burn blister debridement and enhance the absorption of the topical agents, the necrotic epidermis was gently removed by rubbing the burn with dry gauze. Removal of the necrotic epidermis results in delayed reepithelialization, and increased scar formation^17. Twenty burns were inflicted on each of 2 pigs (evenly distributed between both side of the pigs), for a total of 40 burns. The agent used in the studies is PEG-β1^25 (SEQ ID NO: 8) This particular peptide was chosen after screening seven pentacosapeptides whose amino acids overlap and cover most of the human TGF-β1 molecule, the monomer of which has 112 amino acid residues. […] Furthermore, the chosen peptide was also shown to block the cellular responses to TGF-β1 such as DNA synthesis and transcriptional activation of PAI-1. […] TGF-β peptantagonist PEG-β1^25 in PBS was mixed with Sterile IntraSite gel from Smith and Nephew Medical, Ltd. (UK) at a ratio of 1:3 (v/v). The pigs were randomized to treatment with topical PEG-β1^25 peptantagonist (SEQ ID NO: 8) or its vehicle (carboxy methylcellulose, IntraSite Gel, Smith and Nephew, Largo, Fla.) immediately after injury and at days 3, 5, 7, 10, 14, 18, 21, and 25. A thin layer of the topical treatment was applied with a sterile metal spatula. Group randomization order was determined by drawing unlabeled forms from an opaque container. After applying the topical therapy, the burns were covered with dry non-adherent gauze ([…] Company, Mansfield, Mass.). The burned areas were then covered with a gauze bandage roll (Conform®), Kendall Healthcare Products Company, Mansfield, Mass.) and an adhesive elastic bandage (Elastoplast®, Beiersdorf-Jobst, Inc., Rutherford College, N.C.). The adhesive dressing was secured to the skin at a distance from the burns with skin staples. Animals were observed frequently for signs of pain or discomfort and treated with IM buprenorphine 0.01 mg/kg as needed. Dressing changes were performed with each application of the topical agents. At each dressing change all gauze dressings were removed and the wounds were observed and the study agent was reapplied. All burns were then re-covered with non-adherent gauze and elastic wrap as previously described. Full thickness 4-mm punch biopsies (Miltex Instrument Company Inc., Lake Success, N.Y.) were taken after 7, 10, and 14 days for blinded histopathological evaluation by a board-certified dermatopathologist masked to treatment assignment. The entire wound was excised at 28 days and submitted for histological evaluation. Digital photos were taken prior to biopsy to determine the presence of wound contraction defined as an hourglass like shape. Histopathological studies were done on formalin-fixed, alcohol-dehydrated, xylene-cleared, paraffin-embedded, hematoxylin and eosin stained 5 μm sections using conventional microscopy. The primary outcome was the percent of wounds healing with wound contraction. Secondary outcomes were percent reepithelialization, percent wound infection, and the percent of wounds with scars extending through the entire thickness of the dermis. […]"}, "[2]": {"test_system": "TGF-β receptors in mink lung epithelial cells", "test": "Inhibition of labeled TGF-β binding to TGF-β receptors in mink lung epithelial cells", "conditions": "screen of seven pentacosapeptides", "source_text": "(§1) By “treating or preventing alopecia” is meant the ability to cure, reduce or prevent one or more clinical symptoms of alopecia, including, but not limited to, hair loss, cornification, scaling, uneven thickness, persistent itch, inflammation, and rapid epithelial cell turnover in the skin. Treating alopecia also includes the promotion of hair growth at the site of the hair loss. The methods of the invention also encompass promotion or stimulation of hair growth in general (e.g. to thicken naturally thin hair). […] It was also discovered that at least four consecutive amino acids comprising W(or R)XXD (wherein X is any amino acid) motif in the sequences, determines their potencies and that they block TGF-β-induced growth inhibition and TGF-β-induced expression of PAI-1 in mink lung epithelial cells and other cell types (U.S. Pat. No. 6,500,920 issued Dec. 31, 2002). As was previously disclosed by the inventors, such peptides are effective in inhibiting, ameliorating or reversing the effects of TGF-β in biological systems including but not limited to reducing scarring wounds, to prevent lung injury in adult respiratory distress syndrome (ARDS), and injuries of other tissues caused by pharmacological agents (e.g. bladder injury caused by cyclophosphamide). […]"}, "[3]": {"test_system": "mink lung epithelial cells", "test": "Block of TGF-β-induced growth inhibition / DNA synthesis response", "format": "cell-based", "source_text": "as §1"}, "PAI-1": {"test_system": "PAI-1", "test": "Block of TGF-β-induced expression / transcriptional activation of PAI-1", "format": "cell-based, mink", "source_text": "as §1"}, "[4]": {"conditions": "day 28, of 20 burns, full thickness scars"}}, "note": "Where no end group is shown, it is not given here. PEG = not defined here", "data": [{"substance": "PEG-β1^25: β1^25 (SEQ ID NO: 8) pegylated at the N-terminal alpha-amino group and at the epsilon-amino group ({PEG}-ANFSLGPSPYIWSLDTQYSK(PEG)VLALY; reading uncertain; listed as Homo Sapiens)", "values": [{"measurement": "Percent wound reepithelialization, day 7", "setting": "[1]; day 7, 20 burns", "result": "14.2 (28.8) %"}, {"measurement": "Percent wound reepithelialization, day 10", "setting": "[1]; day 10, 20 burns", "result": "46.3 (44.4) %"}, {"measurement": "Percent wound reepithelialization, day 14", "setting": "[1]; day 14, 20 burns", "result": "91.9 (25.7) %"}, {"measurement": "% wounds completed reepithelialized, day 14", "setting": "[1]; day 14, of 20 burns", "result": 90, "unit": "%"}, {"measurement": "No. wounds completed reepithelialized, day 14", "setting": "[1]; day 14, of 20 burns", "result": 18}, {"measurement": "% contracted wounds, day 28", "setting": "[1]; day 28, of 20 burns", "result": 35, "unit": "%"}, {"measurement": "No. contracted wounds, day 28", "setting": "[1]; day 28, of 20 burns", "result": 7}, {"measurement": "% deep scars, day 28", "setting": "[1]; [4]", "result": 10, "unit": "%"}, {"measurement": "No. deep scars, day 28", "setting": "[1]; [4]", "result": 2}, {"measurement": "hair growth in treated wounds", "setting": "[1]; partial-thickness burn, topical gel", "result": "exhibited hair growth"}, {"measurement": "Mean Difference (95% CI) in percent wound reepithelialization, day 7", "setting": "[1]; versus control vehicle, day 7", "result": "7.9 (−8.2-24.1)"}, {"measurement": "Mean Difference (95% CI) in percent wound reepithelialization, day 10", "setting": "[1]; versus control vehicle, day 10", "result": "20.9 (−6.1-48.0)"}, {"measurement": "Mean Difference (95% CI) in percent wound reepithelialization, day 14", "setting": "[1]; versus control vehicle, day 14", "result": "19.5 (−2.5-41.5)"}, {"measurement": "inhibition of binding of labeled TGF-β1 to its receptor", "setting": "[2]", "result": "completely inhibited"}, {"measurement": "block of cellular response to TGF-β1: DNA synthesis", "setting": "[3]", "result": "block"}, {"measurement": "block of cellular response to TGF-β1: transcriptional activation of PAI-1", "setting": "PAI-1", "result": "block"}]}]}
